Values joined by “and” are separate entries in the source; they are usually repeats but may differ in a detail not shown here. Equal values may be shown once. Toxic doses and inconclusive results are not listed. How the source made its calls: active means survival T/C of 150% or more; inactive means T/C below 125% in these data.
Tested on: P388 leukemia ip, CD2F1 mice, survival T/C
Assay: NCI In Vivo Anticancer Drug Screen. Data for tumor model P388 Leukemia (intraperitoneal) in CD2F1 (CDF1) mice
Conditions: endpoint: median survival time, higher = longer survival
Method in brief: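 Mice carrying the transplanted tumor received test compound or vehicle. Survival was recorded in each group, and the value is the treated-group measurement divided by that of the vehicle-treated control group.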

[1] = dose: 25.0 mg/kg/injection, schedule: Q01DX009 (ip), vehicle: saline with Tween-80
[2] = dose: 50.0 mg/kg/injection, schedule: Q01DX009 (ip), vehicle: saline with Tween-80
[3] = dose: 100.0 mg/kg/injection, schedule: Q01DX009 (ip), vehicle: saline with Tween-80
[4] = dose: 200.0 mg/kg/injection, schedule: Q01DX009 (ip), vehicle: saline with Tween-80
[5] = dose: 50.0 mg/kg/injection, schedule: Q01DX005 (ip), vehicle: saline with Tween-80
[6] = dose: 100.0 mg/kg/injection, schedule: Q01DX005 (ip), vehicle: saline with Tween-80
[7] = dose: 200.0 mg/kg/injection, schedule: Q01DX005 (ip), vehicle: saline with Tween-80
[8] = dose: 6.25 mg/kg/injection, schedule: Q01DX005 (ip), vehicle: saline
[9] = dose: 12.5 mg/kg/injection, schedule: Q01DX005 (ip), vehicle: saline
[10] = dose: 25.0 mg/kg/injection, schedule: Q01DX005 (ip), vehicle: saline
[11] = dose: 60.0 mg/kg/injection, schedule: Q01DX005 (ip), vehicle: saline with Tween-80
[12] = dose: 120.0 mg/kg/injection, schedule: Q01DX005 (ip), vehicle: saline with Tween-80
[13] = dose: 240.0 mg/kg/injection, schedule: Q01DX005 (ip), vehicle: saline with Tween-80
[14] = dose: 50.0 mg/kg/injection, schedule: Q01DX009 (ip), vehicle: Klucel (hydroxypropylcellulose) (HPC)
[15] = dose: 100.0 mg/kg/injection, schedule: Q01DX009 (ip), vehicle: Klucel (hydroxypropylcellulose) (HPC)
[16] = dose: 200.0 mg/kg/injection, schedule: Q01DX009 (ip), vehicle: Klucel (hydroxypropylcellulose) (HPC)
[17] = dose: 50.0 mg/kg/injection, schedule: Q01DX005 (ip), vehicle: saline
[18] = dose: 100.0 mg/kg/injection, schedule: Q01DX005 (ip), vehicle: saline
[19] = dose: 200.0 mg/kg/injection, schedule: Q01DX005 (ip), vehicle: saline
[20] = dose: 60.0 mg/kg/injection, schedule: Q01DX005 (ip), vehicle: saline
[21] = dose: 120.0 mg/kg/injection, schedule: Q01DX005 (ip), vehicle: saline
[22] = dose: 100.0 mg/kg/injection, schedule: Q04DX003 (ip), vehicle: saline with Tween-80
[23] = dose: 200.0 mg/kg/injection, schedule: Q04DX003 (ip), vehicle: saline with Tween-80
[24] = dose: 400.0 mg/kg/injection, schedule: Q04DX003 (ip), vehicle: saline with Tween-80

Measured: T/C

CC1(O)Oc2c(cc(C(C)(C)C)cc2C(C)(C)C)C1=O (stereo not given)
inactive: dose: 6.25 mg/kg/injection, schedule: Q01DX009 (ip), vehicle: saline with Tween-80 99 % of control | dose: 12.5 mg/kg/injection, schedule: Q01DX009 (ip), vehicle: saline with Tween-80 102 % of control | [1] 105 % of control

NNC(=O)c1cc2ccccc2cc1O
inactive: [2] 99 % of control | [3] 100 % of control | [4] 95 % of control

CC1(C)OC2C(CO)OC(n3c(Br)nc4c(N)ncnc43)C2O1 (stereo not given)
inactive: [5] 100 % of control | [6] 103 % of control | [7] 100 % of control

CC(C)(C)NC1=NCCNC(c2ccccc2)=C1
inactive: [8] 98 % of control | [9] 100 % of control | [10] 92 % of control

COC(=O)CCC(=O)CN1C(=O)c2ccccc2C1=O
inactive: [11] 106 % of control | [12] 111 % of control | [13] 111 % of control

CCOC(=O)C(C(=O)c1ccccc1)C(=O)C(C)(C)C (stereo not given)
inactive: [2] 100 % of control | [3] 91 % of control | [4] 95 % of control

Cc1ccc(N2C(=O)CC3(CCCCC3)C2=O)c(C)c1
inactive: [14] 105 % of control | [15] 109 % of control | [16] 103 % of control

C#CCOc1ccc(C(F)(F)F)cc1
inactive: [1] 105 % of control | [2] 118 % of control | [3] 119 % of control

COC1OC(CO)C(O)C(O)C1N1C(=O)c2ccccc2C1=O (stereo not given)
inactive: dose: 50.0 mg/kg/injection, schedule: Q01DX005 (ip), vehicle: Klucel (hydroxypropylcellulose) (HPC) 100 % of control | [17] 97 % of control | dose: 100.0 mg/kg/injection, schedule: Q01DX005 (ip), vehicle: Klucel (hydroxypropylcellulose) (HPC) 98 % of control | [18] 97 % of control | dose: 200.0 mg/kg/injection, schedule: Q01DX005 (ip), vehicle: Klucel (hydroxypropylcellulose) (HPC) 97 % of control | [19] 101 % of control

C/C(=C1\N=C(c2ccccc2)OC1=O)c1ccccc1
inactive: [5] 96 % of control | [6] 92 % of control | [7] 95 % of control

Cn1c(N)c(C(=O)c2cccs2)c(=O)n(C)c1=O
inactive: [14] 96 % of control | [15] 88 % of control | [16] 96 % of control

CCO/C=C1/N=C(c2cc(Cl)cc([N+](=O)[O-])c2)OC1=O
inactive: [11] 101 % of control | [12] 101 % of control | [13] 93 % of control

Cn1c(-c2ccccc2Cl)cc(C=O)c1-c1ccccc1
inactive: dose: 100.0 mg/kg/injection, schedule: Q01DX001 (ip), vehicle: saline with Tween-80 99 % of control | dose: 200.0 mg/kg/injection, schedule: Q01DX001 (ip), vehicle: saline with Tween-80 93 % of control | dose: 400.0 mg/kg/injection, schedule: Q01DX001 (ip), vehicle: saline with Tween-80 93 % of control

CC(=O)c1cn[nH]c1NC(=O)c1ccccc1
inactive: dose: 8.75 mg/kg/injection, schedule: Q01DX005 (ip), vehicle: Klucel (hydroxypropylcellulose) (HPC) 103 % of control | dose: 17.5 mg/kg/injection, schedule: Q01DX005 (ip), vehicle: Klucel (hydroxypropylcellulose) (HPC) 103 % of control | dose: 35.0 mg/kg/injection, schedule: Q01DX005 (ip), vehicle: Klucel (hydroxypropylcellulose) (HPC) 95 % of control

COc1ccc(C(=O)C(CN2CCOCC2)CN2CCOCC2)cc1
inactive: [20] 96 % of control | [21] 111 % of control

Cc1ccnc(NCCCCCCNc2nccc(C)n2)n1
inactive: [22] 87 % of control | [23] 98 % of control | [24] 91 % of control

COC(=O)/C=C/c1ccc[n+]([O-])c1
inactive: [17] 99 % of control | [18] 98 % of control | [19] 99 % of control

O=C1NC(=O)c2ncccc21
inactive: [22] 100 % of control | [23] 100 % of control | [24] 100 % of control

N#CCCSc1nnc(SCCC#N)s1
inactive: [14] 92 % of control | [15] 101 % of control | [16] 94 % of control | dose: 400.0 mg/kg/injection, schedule: Q01DX009 (ip), vehicle: Klucel (hydroxypropylcellulose) (HPC) 90 % of control

N#Cc1c(-c2ccccc2)c(-c2ccccc2)n[nH]c1=O
inactive: dose: 25.0 mg/kg/injection, schedule: Q04DX002 (ip), vehicle: distilled water + Tween-80 99 % of control | dose: 50.0 mg/kg/injection, schedule: Q04DX002 (ip), vehicle: distilled water + Tween-80 100 % of control | dose: 100.0 mg/kg/injection, schedule: Q01DX001 (ip), vehicle: saline 100 % of control | dose: 100.0 mg/kg/injection, schedule: Q04DX002 (ip), vehicle: distilled water + Tween-80 98 % of control | dose: 200.0 mg/kg/injection, schedule: Q01DX001 (ip), vehicle: saline 96 % of control | dose: 200.0 mg/kg/injection, schedule: Q04DX002 (ip), vehicle: distilled water + Tween-80 98 % of control | dose: 400.0 mg/kg/injection, schedule: Q01DX001 (ip), vehicle: saline 100 % of control

Cc1ccnc(NC(O)C(Cl)(Cl)Cl)c1 (stereo not given)
inactive: dose: 25.0 mg/kg/injection, schedule: Q01DX009 (ip), vehicle: Klucel (hydroxypropylcellulose) (HPC) 100 % of control | [14] 100 % of control | [15] 98 % of control | [16] 100 % of control

C=C(CSc1ccc(C(=O)O)c([N+](=O)[O-])c1)c1ccc([N+](=O)[O-])cc1
inactive: dose: 12.5 mg/kg/injection, schedule: Q01DX009 (ip), vehicle: saline 105 % of control | dose: 25.0 mg/kg/injection, schedule: Q01DX009 (ip), vehicle: saline 106 % of control | dose: 50.0 mg/kg/injection, schedule: Q01DX009 (ip), vehicle: saline 99 % of control and 90 % of control

C=C1C(=O)C23C(O)C1CCC2C12CCCC(C)(C)C1C(O)C3(O)OC2 (stereo not given)
inactive: dose: 2.5 mg/kg/injection, schedule: Q01DX005 (ip), vehicle: Klucel (hydroxypropylcellulose) (HPC) 101 % of control | dose: 5.0 mg/kg/injection, schedule: Q01DX005 (ip), vehicle: Klucel (hydroxypropylcellulose) (HPC) 107 % of control | dose: 10.0 mg/kg/injection, schedule: Q01DX005 (ip), vehicle: Klucel (hydroxypropylcellulose) (HPC) 108 % of control

COC(=O)C1CC2c3ccccc3C1c1ccccc12 (stereo not given)
inactive: [11] 99 % of control | [12] 99 % of control | [13] 101 % of control

C=C(C)c1c2ccccc2cc2cccc(Sc3ccccc3)c12
inactive: [22] 90 % of control | [23] 90 % of control | [24] 90 % of control

COC(=O)c1cc(C(=O)OC)c2c3[nH]cnc3ncn2c1=O
inactive: [22] 98 % of control | [23] 100 % of control | [24] 97 % of control

NNc1n[nH]c(=O)c2cnccc12
inactive: dose: 25.0 mg/kg/injection, schedule: Q04DX002 (ip), vehicle: saline with Tween-80 96 % of control | dose: 50.0 mg/kg/injection, schedule: Q04DX002 (ip), vehicle: saline with Tween-80 93 % of control | dose: 100.0 mg/kg/injection, schedule: Q04DX002 (ip), vehicle: saline with Tween-80 100 % of control and 95 % of control

CN(C)CC(CN(C)C)C(=O)c1ccc(Cl)cc1
inactive: [8] 107 % of control and 95 % of control and 96 % of control | [9] 107 % of control and 115 % of control and 116 % of control | [10] 107 % of control and 118 % of control and 124 % of control | [17] 104 % of control and 113 % of control

S=c1[nH]nc(NC2CCCCC2)s1
inactive: [2] 90 % of control | [3] 90 % of control | [22] 91 % of control | [4] 90 % of control | [23] 91 % of control

COC(=O)C1(CC(=O)C(c2ccccc2)c2ccccc2)NC(=S)NC(=O)C1C#N (stereo not given)
inactive: [20] 98 % of control | [21] 95 % of control | dose: 240.0 mg/kg/injection, schedule: Q01DX005 (ip), vehicle: saline 100 % of control

O=C1Nc2ncnn2C1=O
inactive: [2] 108 % of control | [3] 111 % of control | [4] 99 % of control | dose: 400.0 mg/kg/injection, schedule: Q01DX009 (ip), vehicle: saline with Tween-80 96 % of control

Reference: PubChem BioAssay AID330 (DTP/NCI, 2004)
